Laboratory results published in patent US12729377B2, “RNAi agents and compositions for inhibiting expression of angiopoietin-like 3 (ANGPTL3), and methods of use” (Arrowhead Pharmaceuticals, Inc., priority 2017, dated 2026).

Experiments:
ANGPTL3 protein [1] = experiment: Example 7: serum ANGPTL3 protein by ELISA in mice; assay type: in vivo, C57bl/6 mice; parameters: key: ratio: (level/pre-treatment day -1 level) ÷ mean of D5W control group
Protocol: (§1) To further assess the in vivo activity of additional ANGPTL3 RNAi agents that are designed to target position 304 on the ANGPTL3 gene, six- to eight-week-old female C57bl/6 mice were used. Pre-dose serum samples were taken at day −1 after a four hour fast. At day 1, each mouse was given a single subcutaneous administration of 200 μl containing 0.5 mg/kg (mpk) of an ANGPTL3 RNAi agent in D5W (dextrose in 5% water), or control (D5W) with no RNAi agent, according to the dosing groups recited in Table 31.
(§2) Each of the RNAi agents included a modified sequence and an N-acetyl-galactosamine-containing targeting ligand conjugated to the 5′ terminal end of the sense strand. (See Tables 3, 4, and 5 for modified sequences and targeting ligand structures). The injections were performed between the skin and muscle (i.e. subcutaneous injections) into the loose skin over the neck and shoulder area. Three (3) mice in each group were tested (n=3). Serum was collected on days 8, 15, 22, and 29. Mice were fasted for four hours prior to each collection. ANGPTL3 protein levels in serum were measured by ELISA assay (R&D Systems), according to the manufacturer's recommendations. Triglycerides, total cholesterol, high-density lipoprotein (HDL), and low-density lipoprotein (LDL) in serum were measured on a Cobas® Integra 400 (Roche Diagnostics), according to the manufacturer's recommendations.
(§3) The ANGPTL3 protein levels, triglyceride levels, total cholesterol levels, HDL levels, and LDL levels for each animal were normalized. For normalization, the level of ANGPTL3 protein, triglyceride, HDL, and total cholesterol, respectively, for each animal at a time point, was divided by the pre-treatment level of expression in that animal (in this case at day −1) to determine the ratio of expression “normalized to pre-treatment.” Expression at a specific time point was then normalized to the D5W control group by dividing the “normalized to pre-treatment” ratio for an individual animal by the mean “normalized to pretreatment” ratio of all mice in the D5W control group.

ANGPTL3 gene [2] = experiment: Example 7: serum triglycerides in mice; assay type: in vivo, C57bl/6 mice; parameters: key: ratio: (level/pre-treatment day -1 level) ÷ mean of D5W control group
Protocol: as §1, §2, §3

ANGPTL3 gene [3] = experiment: Example 7: serum total cholesterol in mice; assay type: in vivo, C57bl/6 mice; parameters: key: ratio: (level/pre-treatment day -1 level) ÷ mean of D5W control group
Protocol: as §1, §2, §3

ANGPTL3 gene [4] = experiment: Example 7: serum HDL in mice; assay type: in vivo; parameters: key: ratio: (level/pre-treatment day -1 level) ÷ mean of D5W control group; conditions: 0.5 mg/kg single SC injection day 1, female C57bl/6 mice, n=3, ratio to D5W control
Protocol: as §1, §2, §3

ANGPTL3 gene [5] = experiment: Example 7: serum LDL in mice; assay type: in vivo; parameters: key: ratio: (level/pre-treatment day -1 level) ÷ mean of D5W control group; conditions: 0.5 mg/kg single SC injection day 1, female C57bl/6 mice, n=3, ratio to D5W control
Protocol: as §1, §2, §3

ANGPTL3 protein [6] = experiment: Example 9: serum ANGPTL3 protein by ELISA in cynomolgus monkeys; assay type: in vivo, cynomolgus macaque (Macaca fascicularis); conditions: for Average ANGPTL3 Protein Normalized to Pre-Treatment: 2.0 mg/kg single SC injection day 1, cynos, n=3
Protocol: (§4) Additional ANGPTL3 RNAi agents were evaluated in cynomolgus monkeys. On day 1, cynomolgus macaque (Macaca fascicularis) primates (also referred to herein as “cynos”) were administered a single subcutaneous injection of 0.3 mL/kg (approximately 2-3 mL volume, depending on animal mass) containing 2.0 mg/kg of an ANGPTL3 RNAi agent, which included either AD05488, AD05743, AD05775, or AD05841, each formulated in saline. […] ANGPTL3 RNAi agents AD05488, AD05743, and AD05775 included nucleotide sequences designed to target position 304 of the ANGPTL3 gene. ANGPTL3 RNAi agent AD05841 included nucleotide sequences designed to target position 1035 of the ANGPTL3 gene.
(§5) Three (3) cynos in each group were tested (n=3). Blood samples were drawn and serum samples were analyzed on days −14 (predose), −7 (predose), 1 (pre-dose), 8, 15, 22, 29, and 35. Cynos were fasted overnight prior to each collection. ANGPTL3 protein levels in serum were measured by ELISA assay (R&D Systems), according to the manufacturer's recommendations. Triglycerides, total cholesterol, high-density lipoprotein (HDL), and low-density lipoprotein (LDL) in serum were measured on a Cobas® Integra 400 (Roche Diagnostics), according to the manufacturer's recommendations.
(§6) The ANGPTL3 protein levels, triglyceride levels, total cholesterol levels, HDL levels, and LDL levels for each animal were normalized. For normalization, the level of ANGPTL3 protein, triglyceride, HDL, and total cholesterol, respectively, for each animal at a time point, was divided by the average pre-treatment level of expression in that animal (in this case at days −14, −7, and 1) to determine the ratio of expression “normalized to pre-treatment.”

ANGPTL3 gene [7] = experiment: Example 9: serum triglycerides in cynomolgus monkeys; assay type: in vivo, cynomolgus macaque (Macaca fascicularis); conditions: 2.0 mg/kg single SC injection day 1, cynos, n=3
Protocol: as §4, §5, §6

ANGPTL3 gene [8] = experiment: Example 9: serum total cholesterol in cynomolgus monkeys; assay type: in vivo, cynomolgus macaque (Macaca fascicularis); conditions: 2.0 mg/kg single SC injection day 1, cynos, n=3
Protocol: as §4, §5, §6

ANGPTL3 gene [9] = experiment: Example 9: serum HDL in cynomolgus monkeys; assay type: in vivo, cynomolgus macaque (Macaca fascicularis); conditions: 2.0 mg/kg single SC injection day 1, cynos, n=3
Protocol: as §4, §5, §6

ANGPTL3 gene [10] = experiment: Example 9: serum LDL in cynomolgus monkeys; assay type: in vivo, cynomolgus macaque (Macaca fascicularis); conditions: 2.0 mg/kg single SC injection day 1, cynos, n=3
Protocol: as §4, §5, §6

[11] = Day 8, 0.5 mg/kg single SC injection on day 1, n=3
[12] = Day 15, 0.5 mg/kg single SC injection on day 1, n=3
[13] = Day 22, 0.5 mg/kg single SC injection on day 1, n=3
[14] = Day 29, 0.5 mg/kg single SC injection on day 1, n=3

## AD05775: RNAi agent duplex: antisense AM07235-AS, sense AM07608-SS (antisense UACUGAUCAAAUAUGUUGAGC; sense GCUCAACAUNUUUGAUCAGUA; (NAG37)s GalNAc ligand; RNAi agent antisense strand modified sequence; RNAi agent sense strand modified sequence; modified_base 10 n = 2′-O-methyl-2-aminoadenosine-3′-phosphate)
ANGPTL3 protein [1]; [11]
  Avg ANGPTL3, normalized to pre-treatment and control: 0.247
ANGPTL3 protein [1]; [12]
  Avg ANGPTL3, normalized to pre-treatment and control: 0.232
ANGPTL3 protein [1]; [13]
  Avg ANGPTL3, normalized to pre-treatment and control: 0.218
ANGPTL3 protein [1]; [14]
  Avg ANGPTL3, normalized to pre-treatment and control: 0.300
ANGPTL3 gene [2]; [11]
  Avg TG, normalized to pre-treatment and control: 0.837
ANGPTL3 gene [2]; [12]
  Avg TG, normalized to pre-treatment and control: 0.610
ANGPTL3 gene [2]; [13]
  Avg TG, normalized to pre-treatment and control: 0.819
ANGPTL3 gene [2]; [14]
  Avg TG, normalized to pre-treatment and control: 0.885
ANGPTL3 gene [3]; [11]
  Avg Total Chol, normalized to pre-treatment and control: 0.794
ANGPTL3 gene [3]; [12]
  Avg Total Chol, normalized to pre-treatment and control: 0.777
ANGPTL3 gene [3]; [13]
  Avg Total Chol, normalized to pre-treatment and control: 0.812
ANGPTL3 gene [3]; [14]
  Avg Total Chol, normalized to pre-treatment and control: 1.108
ANGPTL3 gene [4]; Day 8
  Avg HDL, normalized to pre-treatment and control: 0.754
ANGPTL3 gene [4]; Day 15
  Avg HDL, normalized to pre-treatment and control: 0.757
ANGPTL3 gene [4]; Day 22
  Avg HDL, normalized to pre-treatment and control: 0.736
ANGPTL3 gene [4]; Day 29
  Avg HDL, normalized to pre-treatment and control: 1.069
ANGPTL3 gene [5]; Day 8
  Avg LDL, normalized to pre-treatment and control: 0.975
ANGPTL3 gene [5]; Day 15
  Avg LDL, normalized to pre-treatment and control: 0.918
ANGPTL3 gene [5]; Day 22
  Avg LDL, normalized to pre-treatment and control: 1.095
ANGPTL3 gene [5]; Day 29
  Avg LDL, normalized to pre-treatment and control: 1.534
ANGPTL3 protein [6]; Day 8
  Average ANGPTL3 Protein Normalized to Pre-Treatment: 0.463
ANGPTL3 protein [6]; Day 15
  Average ANGPTL3 Protein Normalized to Pre-Treatment: 0.352
ANGPTL3 protein [6]; Day 22
  Average ANGPTL3 Protein Normalized to Pre-Treatment: 0.330
ANGPTL3 protein [6]; Day 29
  Average ANGPTL3 Protein Normalized to Pre-Treatment: 0.365
ANGPTL3 protein [6]; Day 35
  Average ANGPTL3 Protein Normalized to Pre-Treatment: 0.379
ANGPTL3 protein [6]; each of the measured time points, single 2.0 mg/kg subcutaneous, cynomolgus monkeys
  reduction in ANGPTL3 protein compared to pre-treatment: reduction
ANGPTL3 gene [7]; Day 8
  Average Triglycerides Normalized to Pre-Treatment: 0.466
ANGPTL3 gene [7]; Day 15
  Average Triglycerides Normalized to Pre-Treatment: 0.427
ANGPTL3 gene [7]; Day 22
  Average Triglycerides Normalized to Pre-Treatment: 0.552
ANGPTL3 gene [7]; Day 29
  Average Triglycerides Normalized to Pre-Treatment: 0.391
ANGPTL3 gene [7]; Day 35
  Average Triglycerides Normalized to Pre-Treatment: 0.431
ANGPTL3 gene [8]; Day 8
  Average Total Cholesterol Normalized to Pre-Treatment: 0.965
ANGPTL3 gene [8]; Day 15
  Average Total Cholesterol Normalized to Pre-Treatment: 0.811
ANGPTL3 gene [8]; Day 22
  Average Total Cholesterol Normalized to Pre-Treatment: 0.811
ANGPTL3 gene [8]; Day 29
  Average Total Cholesterol Normalized to Pre-Treatment: 0.813
ANGPTL3 gene [8]; Day 35
  Average Total Cholesterol Normalized to Pre-Treatment: 0.770
ANGPTL3 gene [9]; Day 8
  Average HDL Normalized to Pre-Treatment: 0.904
ANGPTL3 gene [9]; Day 15
  Average HDL Normalized to Pre-Treatment: 0.871
ANGPTL3 gene [9]; Day 22
  Average HDL Normalized to Pre-Treatment: 0.737
ANGPTL3 gene [9]; Day 29
  Average HDL Normalized to Pre-Treatment: 0.781
ANGPTL3 gene [9]; Day 35
  Average HDL Normalized to Pre-Treatment: 0.723
ANGPTL3 gene [10]; Day 8
  Average LDL Normalized to Pre-Treatment: 1.134
ANGPTL3 gene [10]; Day 15
  Average LDL Normalized to Pre-Treatment: 0.909
ANGPTL3 gene [10]; Day 22
  Average LDL Normalized to Pre-Treatment: 1.089
ANGPTL3 gene [10]; Day 29
  Average LDL Normalized to Pre-Treatment: 1.034
ANGPTL3 gene [10]; Day 35
  Average LDL Normalized to Pre-Treatment: 1.008
